{
  "source": "patent US20190343793A1",
  "about": "“COMPOSITIONS COMPRISING A CANNABINOID RECEPTOR BINDING LIGAND” (NOVALIQ GMBH, priority 2016, published 2019)",
  "assay": "Storage stability in a liquid vehicle comprising a semifluorinated alkane",
  "data": [
    {"smiles": "CCCCCc1cc(O)c2c(c1)OC(C)(C)[C@@H]1CCC(C)=C[C@@H]21", "note": "[delta-9-Tetrahydrocannabinol (THC), (−)-(6aR,10aR)-6,6,9-Trimethyl-3-pentyl-6a,7,8,10a-tetrahydro-6H-benzo[c]chromen-1-ol]", "values": [
      {"measurement": "Storage period when dissolved or suspended in liquid vehicle comprising semifluorinated alkane", "setting": "liquid vehicle comprising at least one semifluorinated alkane", "result": "up to 2 years"},
      {"measurement": "Stability when air was not excluded", "setting": "liquid vehicle with high content of, or essentially consisting of, F4H5 or F6H8", "result": "stable even when air was not excluded"}
    ]}
  ]
}
